Measurements reported in the NIST ThermoML archive (doi:10.1016/j.jct.2007.09.007).

Assay: xn = mol fraction of the nth substance listed
Conditions: 100 kPa, Liquid

C1COCCO1 [1,4-dioxane] + CC#N
mass density [kg/m3]
Conditions | 288.15 K | 293.15 K | 298.15 K | 303.15 K
x1 = 0.0046 | 789.4 | 784.08 | 778.69 | 773.26
x1 = 0.0101 | 791.73 | 786.38 | 780.98 | 775.56
x1 = 0.0249 | 797.92 | 792.61 | 787.21 | 781.78
x1 = 0.0336 | 801.42 | 796.07 | 790.67 | 785.24
x1 = 0.0497 | 808.04 | 802.72 | 797.32 | 791.89
x1 = 0.0627 | 813.27 | 807.95 | 802.55 | 797.13
x1 = 0.1106 | 831.43 | 826.1 | 820.71 | 815.28
x1 = 0.1643 | 850.48 | 845.16 | 839.75 | 834.33
x1 = 0.2127 | 866.78 | 861.44 | 856.05 | 850.62
x1 = 0.2853 | 889.43 | 884.08 | 878.67 | 873.24
x1 = 0.3355 | 904 | 898.64 | 893.23 | 887.8
x1 = 0.4341 | 930.27 | 924.89 | 919.46 | 914.02
x1 = 0.4807 | 941.65 | 936.29 | 930.86 | 925.4
x1 = 0.5277 | 952.67 | 947.29 | 941.85 | 936.38
x1 = 0.5828 | 964.93 | 959.51 | 954.06 | 948.58
x1 = 0.6385 | 976.54 | 971.14 | 965.66 | 960.16
x1 = 0.6845 | 985.67 | 980.25 | 974.76 | 969.25
x1 = 0.7278 | 993.97 | 988.54 | 983.03 | 977.5
x1 = 0.777 | 1002.84 | 997.35 | 991.82 | 986.28
x1 = 0.8181 | 1010.08 | 1004.61 | 999.06 | 993.5
x1 = 0.8703 | 1018.77 | 1013.28 | 1007.7 | 1002.12
x1 = 0.9145 | 1025.86 | 1020.33 | 1014.73 | 1009.11
x1 = 0.9604 | 1032.84 | 1027.29 | 1021.66 | 1016.03
x1 = 0.9652 | 1033.57 | 1027.98 | 1022.35 | 1016.71
x1 = 0.9757 | 1035.18 | 1029.58 | 1023.93 | 1018.3
x1 = 0.9817 | 1036.07 | 1030.46 | 1024.82 | 1019.17
x1 = 0.99 | 1037.29 | 1031.66 | 1025.99 | 1020.36
x1 = 0.9954 | 1038.08 | 1032.48 | 1026.83 | 1021.18

CC(C)OC(C)C [diisopropyl ether] + CC#N
mass density [kg/m3]
Conditions | 288.15 K | 293.15 K | 298.15 K | 303.15 K
x1 = 0.0072 | 786.61 | 781.29 | 775.9 | 770.47
x1 = 0.015 | 785.8 | 780.49 | 775.1 | 769.68
x1 = 0.0247 | 784.84 | 779.54 | 774.15 | 768.74
x1 = 0.0308 | 784.29 | 778.97 | 773.59 | 768.17
x1 = 0.0381 | 783.55 | 778.25 | 772.87 | 767.46
x1 = 0.0482 | 782.56 | 777.27 | 771.89 | 766.48
x1 = 0.0991 | 777.78 | 772.47 | 767.11 | 761.72
x1 = 0.1496 | 773.32 | 768.06 | 762.72 | 757.34
x1 = 0.2511 | 765.5 | 760.24 | 754.91 | 749.55
x1 = 0.3069 | 761.73 | 756.5 | 751.18 | 745.83
x1 = 0.3507 | 758.83 | 753.58 | 748.27 | 742.93
x1 = 0.4104 | 755.28 | 750.02 | 744.74 | 739.4
x1 = 0.4513 | 752.87 | 747.67 | 742.35 | 737.04
x1 = 0.5132 | 749.57 | 744.35 | 739.06 | 733.73
x1 = 0.56 | 747.13 | 741.91 | 736.63 | 731.3
x1 = 0.6429 | 743.32 | 738.15 | 732.87 | 727.55
x1 = 0.6938 | 741.1 | 735.9 | 730.64 | 725.33
x1 = 0.76 | 738.32 | 733.12 | 727.83 | 722.53
x1 = 0.8129 | 736.2 | 731.02 | 725.76 | 720.46
x1 = 0.8449 | 735 | 729.8 | 724.53 | 719.26
x1 = 0.904 | 732.62 | 727.46 | 722.22 | 716.94
x1 = 0.9509 | 730.9 | 725.75 | 720.52 | 715.25
x1 = 0.963 | 730.42 | 725.28 | 720.05 | 714.78
x1 = 0.9685 | 730.2 | 725.06 | 719.83 | 714.56
x1 = 0.9815 | 729.68 | 724.52 | 719.32 | 714.06
x1 = 0.9887 | 729.4 | 724.27 | 719.05 | 713.79
x1 = 0.9945 | 729.15 | 724.02 | 718.81 | 713.55

C1CCOC1 [tetrahydrofuran] + CC#N
mass density [kg/m3]
Conditions | 288.15 K | 293.15 K | 298.15 K | 303.15 K
x1 = 0.0053 | 788.34 | 783 | 777.57 | 772.17
x1 = 0.0104 | 789.18 | 783.84 | 778.44 | 773.01
x1 = 0.0197 | 790.72 | 785.35 | 779.94 | 774.52
x1 = 0.0294 | 792.28 | 786.96 | 781.56 | 776.11
x1 = 0.0389 | 793.83 | 788.5 | 783.1 | 777.67
x1 = 0.0993 | 803.2 | 797.8 | 792.41 | 786.97
x1 = 0.1598 | 812.11 | 806.78 | 801.3 | 795.84
x1 = 0.1978 | 817.43 | 812.02 | 806.63 | 801.18
x1 = 0.2441 | 823.65 | 818.27 | 812.84 | 807.39
x1 = 0.2845 | 828.9 | 823.5 | 818.1 | 812.64
x1 = 0.3445 | 836.2 | 830.81 | 825.36 | 819.91
x1 = 0.4022 | 842.91 | 837.51 | 832.02 | 826.57
x1 = 0.4545 | 848.62 | 843.24 | 837.79 | 832.34
x1 = 0.4995 | 853.35 | 847.94 | 842.49 | 837.08
x1 = 0.5298 | 856.4 | 851.03 | 845.55 | 840.1
x1 = 0.5552 | 858.94 | 853.51 | 848.07 | 842.6
x1 = 0.6054 | 863.65 | 858.25 | 852.78 | 847.29
x1 = 0.6405 | 866.78 | 861.42 | 855.96 | 850.47
x1 = 0.6603 | 868.52 | 863.15 | 857.69 | 852.2
x1 = 0.6976 | 871.74 | 866.29 | 860.83 | 855.34
x1 = 0.747 | 875.76 | 870.32 | 864.86 | 859.36
x1 = 0.8003 | 879.84 | 874.36 | 868.9 | 863.41
x1 = 0.8179 | 881.06 | 875.68 | 870.22 | 864.73
x1 = 0.8537 | 883.67 | 878.23 | 872.77 | 867.28
x1 = 0.8975 | 886.63 | 881.19 | 875.76 | 870.25
x1 = 0.9502 | 890 | 884.59 | 879.13 | 873.61
x1 = 0.9671 | 890.93 | 885.55 | 880.09 | 874.59
x1 = 0.9745 | 891.4 | 886.03 | 880.56 | 875.07
x1 = 0.9854 | 892.01 | 886.65 | 881.17 | 875.7
x1 = 0.9877 | 892.14 | 886.76 | 881.29 | 875.8
x1 = 0.994 | 892.51 | 887.12 | 881.66 | 876.13
